Test results as given in patent publication US20130102631A1, “NOVEL MICROBIOCIDAL DIOXIME ETHER DERIVATIVES” (SYNGENTA CROP PROTECTION LLC, priority 2010, published 2013).

What was measured:
[1] = system: Puccinia recondita f. sp. tritici; experiment: Puccinia recondita f. sp. tritici / wheat / leaf disc curative (brown rust); type: in vivo; settings: foliar, wheat leaf segments cv Kanzler, 200 ppm applied 1 day after inoculation, assessed 6-8 days after application
Method: Puccinia recondita f. sp. tritici/Wheat/Leaf Disc Curative (Brown Rust): Wheat leaf segments cv Kanzler were placed on agar in 24-well plates. The leaf segments were inoculated with a spore suspension of the fungus. The plates were stored in darkness at 19° C. and 75% relative humidity. The formulated test compound diluted in water was applied at an application rate of 200 ppm 1 day after inoculation. […]-2.508; 5.561; 2.561; E/E-2.208; 2.513; 2.559; 2.556; 2.555; 2.374; 2.552; 2.537; 2.519; 2.516; 2.514; […].002; 2.512; E/E-2.507

[2] = system: Mycosphaerella arachidis (Cercospora arachidicola); experiment: Mycosphaerella arachidis (Cercospora arachidicola) / liquid culture (early leaf spot); type: cell-based; settings: at ≦200 ppm, liquid culture PDB, inhibition of growth photometrically 4-5 days after application, read-out: control of Mycosphaerella arachidis
Method: Mycosphaerella arachidis (Cercospora arachidicola)/Liquid Culture (Early Leaf Spot): Conidia of the fungus from cryogenic storage were directly mixed into nutrient broth (PDB potato dextrose broth). After placing a DMSO solution of test compound into a 96-well microtiter plate, the nutrient broth containing the fungal spores was added. The test plates are incubated at 24° C. and the inhibition of growth was determined photometrically 4-5 days after application. […]-2.509; 5.561; 2.561; P.57; 2.513; 2.559; 2.558; 2.557; 2.556; 2.555; 2.374; 2.553; 2.552; 2.551 (fraction B); 2.551 (fraction A); 2.544; 2.541; 2.539; 2.537; 2.536; 2.533; 2.532; 2.531; 2.530; 2.528; 2.526; 2.525 (fraction B); 2.525 (fraction A); 2.524; 2.520; 2.519; 2.510; 2.518; 2.517; 2.516; 2.514; […].002; 2.512; 2.511; 2.514

[3] = system: Blumeria graminis f. sp. tritici (Erysiphe graminis f. sp. tritici); experiment: Blumeria graminis f. sp. tritici / wheat / leaf disc preventative (powdery mildew on wheat); type: in vivo; settings: foliar, wheat leaf segments cv. Kanzler, inoculated 1 day after application, assessed 6-8 days after application
Method: Blumeria graminis f. sp. tritici (Erysiphe graminis f. sp. tritici)/Wheat/Leaf Disc Preventative (Powdery Mildew on Wheat):
Wheat leaf segments cv. Kanzler were placed on agar in a 24-well plate and sprayed with the formulated test compound diluted in water at an application rate of 200 ppm. The leaf disks were inoculated by shaking powdery mildew infected plants above the test plates 1 day after application. The inoculated leaf disks were incubated at 20° C. and 60% relative humidity under a light regime of 24 h darkness followed by 12 h/12 h (dark/light) in a climate chamber and the activity of a compound was assessed as percent disease control compared to untreated when an appropriate level of disease damage appears on untreated check leaf segments (6-8 days after application). The following compounds gave at least 80% control of Blumeria graminis: E/E-2.168, E/E-2.474, E/E-2.002; 5.561; 2.561; E/E-2.208; 2.513; 2.559; 2.557; 2.556; 2.555; 2.374; 2.552; 2.537; 2.533; 2.530; 2.528; 2.526; 2.519; 2.510; 2.516; 2.514; E/E-5.167; E/E-3.002; 2.512; 2.511

[4] = system: Puccinia recondita f. sp. tritici; experiment: Puccinia recondita f. sp. tritici / wheat / leaf disc preventative (brown rust); type: in vivo; settings: foliar, wheat leaf segments cv Kanzler, inoculated 1 day after application, assessed 7-9 days after application
Method: Puccinia recondita f. sp. Tritici/Wheat/Leaf Disc Preventative (Brown Rust): Wheat leaf segments cultivated variety (cv) Kanzler were placed on agar in 24-well plates and sprayed with formulated test compound diluted in water at an application rate of 200 ppm. The leaf disks were inoculated with a spore suspension of the fungus 1 day after application. The inoculated leaf segments were incubated at 19° C. and 75% relative humidity under a light regime of 12/12 h (light/dark) in a climate cabinet and the activity of a compound was assessed as percent disease control compared to untreated when an appropriate level of disease damage appears in untreated check leaf segments (7-9 days after application). […]-2.508; 5.561; 2.561; 2.513; 2.559; 2.556; 2.555; 2.374; 2.544; 2.537; 2.530; 2.525 (fraction B); 2.519; 2.516; 2.514; E/E-5.167; E/E-3.002; 2.512; E/E-2.507

[5] = system: Phaeosphaeria nodorum (Septoria nodorum); experiment: Phaeosphaeria nodorum (Septoria nodorum) / wheat / leaf disc preventative (glume blotch); type: in vivo; settings: Parastagonospora nodorum, foliar, wheat leaf segments cv Kanzler, inoculated 2 days after application, assessed 5-7 days after application
Method: Phaeosphaeria nodorum (Septoria nodorum)/Wheat/Leaf Disc Preventative (Glume Blotch): Wheat leaf segments cv Kanzler were placed on agar in a 24-well plate and sprayed with formulated test compound diluted in water at an application rate of 200 ppm. The leaf disks are inoculated with a spore suspension of the fungus 2 days after application. The inoculated test leaf disks are incubated at 20° C. and 75% relative humidity under a light regime of 12/12 h (light/dark) in a climate cabinet and the activity of a compound is assessed as percent disease control compared to untreated when an appropriate level of disease damage appears in untreated check leaf disks (5-7 days after application). […]-2.508; 5.561; 2.561; E/E-2.208; P.57; 2.513; 2.559; 2.558; 2.557; 2.556; 2.555; 2.374; 2.544; 2.541; 2.539; 2.537; 2.536; 2.535; 2.533; 2.530; 2.526; 2.519; 2.510; 2.516; 2.514; E/E-5.167; E/E-3.002; 2.512

Glomerella lagenarium = Glomerella lagenarium (Colletotrichum lagenarium) / liquid culture (anthracnose); type: cell-based; settings: Colletotrichum orbiculare; at ≦200 ppm, liquid culture PDB, inhibition of growth photometrically 3-4 days after application; read-out: control of Glomerella lagenarium
Method: Glomerella lagenarium (Colletotfichum lagenarium)/Liquid Culture (Anthracnose): Conidia of the fungus from cryogenic storage were directly mixed into nutrient broth (PDB potato dextrose broth). After placing a DMSO solution of test compound into a 96-well microtiter, the nutrient broth containing the fungal spores was added. The test plates were incubated at 24° C. and the inhibition of growth is measured photometrically 3-4 days after application. […]-2.509; 5.561; 2.561; E/E-2.208; P.57; 2.513; 2.559; 2.556; 2.555; 2.374; 2.552; 2.548; 2.544; 2.541; 2.540; 2.539; 2.537; 2.536; 2.533; 2.531; 2.530; 2.528; 2.526; 2.519; 2.510; 2.516; 2.514; E/E-5.167; E/E-3.002; 2.512; 2.514; Z/E-2.474

Pyrenophora teres = Pyrenophora teres / barley / leaf disc preventative (net blotch); type: in vivo; settings: foliar, barley leaf segments cv Hasso, inoculated two days after application, assessed 5-7 days after application
Method: Pyrenophora teres/Barley/Leaf Disc Preventative (Net Blotch): Barley leaf segments cv Hasso are placed on agar in a 24-well plate and sprayed with formulated test compound diluted in water at an application rate of 200 ppm. The leaf segments are inoculated with a spore suspension of the fungus two days after application of the test solution. The inoculated leaf segments are incubated at 20° C. and 65% relative humidity under a light regime of 12/12 h (light/dark) in a climate cabinet and the activity of a compound is assessed as disease control compared to untreated when an appropriate level of disease damage appears in untreated check leaf segments (5-7 days after application). […]-2.507; 5.561; 2.561; E/E-2.208; P.57; 2.513; 2.559; 2.558; 2.556; 2.555; 2.374; 2.552; 2.544; 2.537; 2.533; 2.530; 2.528; 2.519; 2.510; 2.516; 2.514; E/E-5.167; E/E-3.002; 2.512

[6] = system: Mycosphaerella graminicola (Septoria tritici); experiment: Mycosphaerella graminicola (Septoria tritici) / liquid culture (Septoria blotch); type: cell-based; settings: Zymoseptoria tritici; at ≦200 ppm, liquid culture PDB, inhibition of growth photometrically 4-5 days after application; read-out: control of Mycosphaerella graminicola
Gaeumannomyces graminis = Gaeumannomyces graminis / liquid culture (take-all of cereals); type: cell-based; settings: at ≦200 ppm, liquid culture PDB, inhibition of growth photometrically 4-5 days after application, read-out: control of Gaeumannomyces graminis
Method: Gaeumannomyces graminis/Liquid Culture (Take-All of Cereals): Mycelial fragments of the fungus from cryogenic storage were directly mixed into nutrient broth (PDB potato dextrose broth). After placing a DMSO solution of test compound into a 96-well microtiter plate, the nutrient broth containing the fungal spores is added. The test plates were incubated at 24° C. and the inhibition of growth was determined photometrically 4-5 days after application. […]-2.509; 5.561; 2.561; P.57; 2.513; 2.559; 2.558; 2.557; 2.556; 2.555; 2.374; 2.553; 2.552; 2.551 (fraction B); 2.551 (fraction A); 2.539; 2.533; 2.528; 2.526; 2.525 (fraction B); 2.525 (fraction A); 2.524; 2.523; 2.521; 2.520; 2.519; 2.510; 2.518; 2.516; 2.514; E/E-5.167; E/E-3.002; 2.512; E/E-2.508

[7] = system: Thanatephorus cucumeris (Rhizoctonia solani); experiment: Thanatephorus cucumeris (Rhizoctonia solani) / liquid culture (foot rot, damping-off); type: cell-based; settings: at ≦200 ppm, liquid culture PDB, inhibition of growth photometrically 3-4 days after application, read-out: control of Thanatephorus cucumeris
Method: Thanatephorus cucumeris (Rhizoctonia solani)/Liquid Culture (Foot Rot, Damping-Off Mycelia fragments of a newly grown liquid culture of the fungus are directly mixed into nutrient broth (PDB potato dextrose broth). After placing a DMSO solution of the test compounds into a 96-well microtiter, the nutrient broth containing the fungal material was added. The test plates were incubated at 24° C. and the inhibition of growth was determined photometrically 3-4 days after application. […]-2.508 5.561; 2.561; P.57; 2.513; 2.559; 2.558; 2.553; 2.533; 2.530; 2.526; 2.519; 2.517; 2.516; 2.514; 2.512; 2.514

[8] = system: Monographella nivalis (Microdochium nivale); experiment: Monographella nivalis (Microdochium nivale) / liquid culture (foot rot cereals); type: cell-based; settings: at ≦200 ppm, liquid culture PDB, inhibition of growth photometrically 4-5 days after application, read-out: control of Monographella nivalis
Method: Monographella nivalis (Microdochium nivale)/Liquid Culture (Foot Rot Cereals): Conidia of the fungus from cryogenic storage were directly mixed into nutrient broth (PDB potato dextrose broth). After placing a DMSO solution of test compound into a 96-well microtiter plate, the nutrient broth containing the fungal spores was added. The test plates were incubated at 24° C. and the inhibition of growth was determined photometrically 4-5 days after application. […].57; 2.513; 2.559; 2.558; 2.556; 2.555; 2.374; 2.553; 2.551 (fraction B); 2.551 (fraction A); 2.548; 2.544; 2.542; 2.541; 2.539; 2.536; 2.535; 2.533; 2.530; 2.528; 2.526; 2.525 (fraction B); 2.525 (fraction A); 2.524; 2.519; 2.518; 2.516; 2.514; E/E-5.167; 2.512; 2.514

Cc1ccc2c(n1)/C(=N/OCC(C)(C)CO/N=C(\c1ccncc1)c1ccccn1)CCC2 [Compound 2.537]
≥ 80%: pest or weed control at 200 ppm [1] | inhibition of growth at up to 200 µg/mL [2] | pest or weed control at 200 ppm [3] | pest or weed control at 200 ppm [4] | pest or weed control at 200 ppm [5] | inhibition of growth at up to 200 µg/mL (Glomerella lagenarium) | pest or weed control at 200 ppm (Pyrenophora teres) | inhibition of growth at up to 200 µg/mL [6]

Cc1ccc2c(n1)/C(=N/OCC(C)(C)CO/N=C/c1ncc(Cl)cc1F)CCC2 [Compound 2.552]
≥ 80%: pest or weed control at 200 ppm [1] | inhibition of growth at up to 200 µg/mL [2] | pest or weed control at 200 ppm [3] | inhibition of growth at up to 200 µg/mL (Glomerella lagenarium) | pest or weed control at 200 ppm (Pyrenophora teres) | inhibition of growth at up to 200 µg/mL (Gaeumannomyces graminis) | inhibition of growth at up to 200 µg/mL [6]

Cc1ccc2c(n1)/C(=N/OCC(C)(C)CO/N=C/c1ccc(OCc3ccccc3)cn1)CCC2 [Compound 2.553]
≥ 80%: inhibition of growth at up to 200 µg/mL [7] | inhibition of growth at up to 200 µg/mL [2] | inhibition of growth at up to 200 µg/mL [8] | inhibition of growth at up to 200 µg/mL (Gaeumannomyces graminis) | inhibition of growth at up to 200 µg/mL [6]

C/C(=N\OCC(C)(C)CO/N=C1\CCCc2ccc(C#CCO)nc21)c1cc(C)cc(C)n1 [Compound 2.558]
≥ 80%: inhibition of growth at up to 200 µg/mL [7] | inhibition of growth at up to 200 µg/mL [2] | inhibition of growth at up to 200 µg/mL [8] | pest or weed control at 200 ppm [5] | pest or weed control at 200 ppm (Pyrenophora teres) | inhibition of growth at up to 200 µg/mL (Gaeumannomyces graminis) | inhibition of growth at up to 200 µg/mL [6]

C/C(=N\OCC(C)(C)CO/N=C1\CCCc2c(C)cc(CF)nc21)c1cc(C)cc(C)n1 [E/E-2.208]
≥ 80%: pest or weed control at 200 ppm [1] | pest or weed control at 200 ppm [3] | pest or weed control at 200 ppm [5] | inhibition of growth at up to 200 µg/mL (Glomerella lagenarium) | pest or weed control at 200 ppm (Pyrenophora teres)
